# Laboratory results reported in US20130183249A1, “Stimulus Sensitive Magnetic Nanocomposite Using Pyrene Polymer, and Contrast Medium Composition Containing the Nanocomposite” (INDUSTRY ACADEMIC COOPERATION FOUNDATION YOUNSEI UNIVERSITY, priority 2010, published 2013).
# System: NIH3T6.7 and MDA-MB-231 cells
# Experiment: Cell targeting ability and drug release by fluorescence microscopy
# Settings: 0.05 mM based on doxorubicin, 30 minutes incubation
# Method: For each of 12 wells, a cover glass was put on a bottom, 3×10^5 of each of NIH3T6.7 and MDA-MB-231 cells were dispensed on the glass per well to incubate for 12 hours, and washed with PBS three times. After the washing with PBS, 0.05 mM of a Herceptin-binding target-specific stimuli-sensitive nanocomposite based on doxorubicin, an IgG-binding stimuli-sensitive nanocomposite as a control group, and doxorubicin were each added to the cells, and incubated for 30 minutes. After the cells were washed with PBS, a dye for a cell nucleus (Hoechst dye) was added to the cells, reacted for 10 minutes and washed with PBS three times, and then the cover glass was fixed to a slide glass to observe microscope images.
smiles,measurement,value
"COc1cccc2c1C(=O)c1c(O)c3c(c(O)c1C2=O)C[C@@](O)(C(=O)CO)C[C@@H]3O[C@H]1C[C@H](N)[C@H](O)[C@H](C)O1 [Doxorubicin, doxorubicin]",doxorubicin identified in cell nucleus (microscope images),identified from a nucleus of the doxorubicin-treated cell without distinction of cells
